Experimental data: PubChem BioAssay AID977605 (Broad Institute, 2014)
The source made the active and inactive calls.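 The calls were made as follows: active = fitted curve reaches 40% activation below the top valid tested dose, in every test run; inconclusive = test runs disagree on the call; inactive = the rest, including effects opposite to the expected direction.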

Assay: E-selectin inducers in HUVECs, dose response, imaging, HUVEC, cherry-picked samples (AID 977605);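 also: signal is the share of imaged cells scored positive for E-selectin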
Settings: HUVEC E-selectin immunostaining, at 18 µM (top of the series), percent of TNF-alpha response over vehicle
In the case of CCC(=O)N1CC[C@@H]2[C@H](CO)Nc3ccc(C#Cc4ccc(F)cc4)cc3[C@@H]21, the activation is reported as 27.2% (inactive).
In the case of COc1ccc(NC(=O)N(C)C[C@H]2Oc3ccc(NC(=O)CCCCCC(=O)Nc4ccccc4N)cc3CC(=O)N([C@@H](C)CO)C[C@H]2C)cc1, the activation is reported as 0.745% (inactive).

Same assay, conditions: HUVEC E-selectin immunostaining, at 19.5 µM (top of the series)
For C=COCCn1c(C)c(C(C)=O)c2cc(O)ccc21, the activation was 0.265% (inactive).

Same assay, conditions: HUVEC E-selectin immunostaining, at 19.5 µM (top of the series), percent of TNF-alpha response over vehicle
With CCc1cc(C(=O)Nc2nc(-c3ccccn3)cs2)sc1C the activation was 0.665% (inactive).
For COc1ccc(N2CCN(C(=O)c3cccc(NC4=NC5CS(=O)(=O)CC5S4)c3)CC2)cc1 (configuration not stated), the activation was -0.136% (inactive).
In the case of C[C@@H]1CN([C@H](C)CO)C(=O)c2cc(C3=CCCC3)cnc2O[C@@H]1CN(C)C(=O)Nc1ccccc1, the activation is reported as 0.119% (inactive).
For C[C@H]1CN([C@@H](C)CO)C(=O)Cc2cc(NC(=O)Cc3cn(C)c4ccccc34)ccc2O[C@H]1CN(C)Cc1ccc(C(F)(F)F)cc1, the activation was 16.2% (inactive).
With COc1ccc(NC(=O)N(C)C[C@@H]2Oc3ccc(NC(=O)Cc4ccccc4)cc3CC(=O)N([C@H](C)CO)C[C@H]2C)cc1 the activation was -0.201% (inactive).
For COc1cccc(CNC(=O)CN2C(=O)COc3ccc(S(=O)(=O)N4CCCCCC4)cc32)c1, the activation was -0.081% (inactive).
In the case of CCn1nc(CC(=O)O)c2ccccc2c1=O, the activation is reported as 5.69% (inactive).
With COc1ccc(S(=O)(=O)N2CCOCC2)cc1C(=O)NCc1ccccc1CN1CCCC1 the activation was 0.269% (inactive).
With COc1ccc(-c2nc3cc(C)c(Br)c(C)n3c2CC(C)(C)C)cc1OC the activation was 0.052% (inactive).
With CN(CC(=O)Nc1cccc(F)c1)CC(=O)N1CCc2ccccc21 the activation was 0.11% (inactive).
For COc1ccc(CN(C)C[C@H]2Oc3ccc(N(C)C)cc3CC(=O)N([C@H](C)CO)C[C@H]2C)cc1, the activation was 0.315% (inactive).
In the case of CCCCNC(=O)N1c2ccccc2CC1C (configuration not stated), the activation is reported as 0.083% (inactive).
In the case of O=C(O)Cn1cc(C(=O)C(F)(F)F)c2ccccc21, the activation is reported as 0.43% (inactive).
In the case of C[C@@H]1CN([C@@H](C)CO)C(=O)c2cc(NC(=O)Cn3cnnn3)ccc2O[C@@H]1CN(C)Cc1ccc(Oc2ccccc2)cc1, the activation is reported as -0.116% (inactive).
With CCOc1ccc2ncc(S(=O)(=O)c3ccc(C)cc3)c(N3CCC4(CC3)OCCO4)c2c1 the activation was -0.045% (inactive).
In the case of C[C@H](CO)N1C[C@H](C)[C@@H](CN(C)C)Oc2cc(C#Cc3ccccc3F)ccc2S1(=O)=O, the activation is reported as 0.115% (inactive).
In the case of C[C@@H]1CN([C@H](C)CO)C(=O)c2cc(C3=CCCC3)cnc2O[C@H]1CN(C)C(=O)Nc1ccccc1, the activation is reported as -0.157% (inactive).
For COc1ccc(-c2nc(NC(=O)Cn3c(=O)oc4ccccc43)sc2C)cc1, the activation was 1.37% (inactive).
With C[C@H]1CN([C@@H](C)CO)C(=O)c2cccc(NS(C)(=O)=O)c2O[C@H]1CN(C)S(C)(=O)=O the activation was 0.973% (inactive).
In the case of C[C@H]1CN([C@@H](C)CO)C(=O)c2cc(N(C)C)ccc2O[C@H]1CN(C)S(=O)(=O)c1cn(C)cn1, the activation is reported as 0.81% (inactive).
In the case of Cc1ccc(NCC(=O)N2CCN(S(=O)(=O)c3ccccc3)CC2)cc1F, the activation is reported as 0.075% (inactive).
For C[C@H](CO)N1C[C@H](C)[C@H](CN(C)Cc2ccc(Cl)c(Cl)c2)Oc2c(NC(=O)CCCCCC(=O)Nc3ccccc3N)cccc2C1=O, the activation was 0.173% (inactive).
In the case of C[C@@H]1CN([C@H](C)CO)S(=O)(=O)c2ccc(-c3ccc(F)cc3)cc2O[C@@H]1CN(C)CC1CC1, the activation is reported as 0.158% (inactive).
With O=C(NCc1ccc(F)cc1)c1cc(C2CCCCN2C(=O)CCCc2ccccc2)on1 (configuration not stated) the activation was -0.164% (inactive).
In the case of CC1CCN(c2nc3c(=O)[nH]c(N)nc3n2[C@@H]2O[C@H](CO)[C@@H](O)[C@H]2O)CC1, the activation is reported as 0.131% (inactive).
For CC(C)N(CCC#N)C(=O)Nc1ccc2c(c1)CCO2, the activation was -0.194% (inactive).
With O=C1CC(N2CCSCC2)C(=O)N1c1cccc(Br)c1 (configuration not stated) the activation was -0.085% (inactive).
In the case of Cc1ccc(S(=O)(=O)N2CCN(C(=O)Cc3sc(C)nc3-c3ccc(F)cc3)CC2)c(C)c1, the activation is reported as -0.025% (inactive).
For Cn1c(CNS(=O)(=O)c2ccc(Cl)cc2)cc(=O)n(C)c1=O, the activation was -0.279% (inactive).
For COc1ccc(S(=O)(=O)N(C)C[C@H]2Oc3ccc(NC(=O)Nc4c(C)noc4C)cc3C(=O)N([C@H](C)CO)C[C@H]2C)cc1, the activation was 0.58% (inactive).
With COc1ccc(CNC(=O)Cn2ccc(N)nc2=O)cc1 the activation was 0.076% (inactive).
With C[C@@H]1CN([C@@H](C)CO)C(=O)Cc2cc(NC(=O)CCCCCC(=O)Nc3ccccc3N)ccc2O[C@@H]1CN(C)C(=O)Nc1ccc2c(c1)OCO2 the activation was 0.042% (inactive).
In the case of Cc1ccc(COc2ccc(/C=N/O)cc2)cc1, the activation is reported as -0.083% (inactive).
For COc1ccc(NC(=O)N(C)C[C@@H]2Oc3ccc(NC(=O)c4ccncc4)cc3CC(=O)N([C@H](C)CO)C[C@@H]2C)cc1, the activation was -0.135% (inactive).
For Cc1noc(C)c1NC(=O)N(C)C[C@@H]1Oc2ccc(NS(=O)(=O)c3cccs3)cc2CC(=O)N([C@H](C)CO)C[C@H]1C, the activation was -0.165% (inactive).
With Cc1cc(C(=O)Nc2cccc3c2O[C@@H](CN(C)S(=O)(=O)c2ccc(F)cc2)[C@@H](C)CN([C@H](C)CO)C3=O)n(C)n1 the activation was 0.077% (inactive).
In the case of COc1ccc(S(=O)(=O)N(C)C[C@H]2Oc3ccc(NC(=O)CCCN(C)C)cc3C(=O)N([C@@H](C)CO)C[C@@H]2C)cc1, the activation is reported as -0.152% (inactive).
In the case of CCCCCCOc1ccc(C(CC(N)=O)C(=O)O)cc1 (configuration not stated), the activation is reported as -0.269% (inactive).
For CC12CCC(=O)N1C(C(=O)Nc1cc(Cl)ccc1N1CCOCC1)CS2 (configuration not stated), the activation was -0.124% (inactive).
In the case of C[C@@H]1CN([C@@H](C)CO)C(=O)Cc2cc(NC(=O)Nc3ccc(F)cc3)ccc2O[C@@H]1CN(C)Cc1ccncc1, the activation is reported as 10.4% (inactive).
With COc1ncnc(OC)c1S(=O)(=O)NCc1ccccc1 the activation was -0.033% (inactive).
With C[C@@H]1CN([C@H](C)CO)C(=O)c2cccc(NC(=O)CCCCCC(=O)Nc3ccccc3N)c2O[C@H]1CN(C)C the activation was 0.064% (inactive).
For O=C(Nc1cc(C(F)(F)F)cc(C(F)(F)F)c1)Nc1cnn(-c2ccc([N+](=O)[O-])cc2)c1C(F)(F)F, the activation was 0.091% (inactive).
With CC(C)(C)S(=O)(=O)c1cnc(-c2cnccn2)nc1N the activation was -0.028% (inactive).
For C[C@H](CO)N1C[C@H](C)[C@H](CN(C)Cc2ccc(Cl)c(Cl)c2)Oc2c(NS(=O)(=O)c3cn(C)cn3)cccc2C1=O, the activation was -0.123% (inactive).
In the case of C[C@@H]1CN([C@@H](C)CO)C(=O)Cc2cc(NS(=O)(=O)c3cccs3)ccc2O[C@H]1CN(C)C(=O)Nc1ccc(F)cc1, the activation is reported as -0.169% (inactive).
For CC(C)NC(=O)N(C)C[C@H]1Oc2c(NC(=O)c3ccc(-c4nccs4)cc3)cccc2C(=O)N([C@@H](C)CO)C[C@H]1C, the activation was 2.24% (inactive).
For O=C1Nc2ccccc2C1Cc1ccccn1 (configuration not stated), the activation was -0.092% (inactive).
In the case of Cc1noc(C)c1COc1ccccc1C(=O)N1CCN(S(=O)(=O)c2ccc(F)c(F)c2)CC1, the activation is reported as 0.069% (inactive).
With CNC(=O)Oc1ccc2c(c1)[C@]1(C)CCN(C)C1N2C (some centres not stated) the activation was -0.106% (inactive).
In the case of C[C@@H]1CN([C@H](C)CO)C(=O)c2cc(NC(=O)CCN3CCOCC3)ccc2O[C@H]1CN(C)C(=O)Nc1ccc(C(F)(F)F)cc1, the activation is reported as -0.038% (inactive).
With CCCNC(=O)N(C)C[C@@H]1Oc2ncc(C3=CCCC3)cc2C(=O)N([C@H](C)CO)C[C@H]1C the activation was 0.267% (inactive).
For C[C@H](CO)N1C[C@H](C)[C@@H](CN(C)S(=O)(=O)c2ccccc2)Oc2ccc(NC(=O)Nc3ccc(C(F)(F)F)cc3)cc2C1=O, the activation was 0.863% (inactive).
With C[C@@H]1CN([C@@H](C)CO)C(=O)c2cccc(NC(=O)C3CC3)c2O[C@H]1CN(C)Cc1ccccc1 the activation was 0.172% (inactive).
In the case of CCOc1ccc(C(=O)N2CCN(S(=O)(=O)c3cccs3)CC2)c(OCC)c1, the activation is reported as -0.235% (inactive).
With C[C@H](CO)N1C[C@H](C)[C@H](CN(C)C(=O)Nc2ccc(C(F)(F)F)cc2)Oc2ccc(NC(=O)Cn3cnnn3)cc2CC1=O the activation was 0.063% (inactive).
With CCc1ccc(C(C(=O)NC2CCCCC2)N(C(=O)c2csnn2)C2CC2)cc1 (configuration not stated) the activation was -0.021% (inactive).
With COc1ccc(Nc2n[nH]c(N)c2C(N)=O)cc1 the activation was -0.163% (inactive).
In the case of Cc1noc(C)c1NC(=O)N(C)C[C@H]1Oc2ccc(NC(=O)c3ccncc3)cc2C(=O)N([C@H](C)CO)C[C@@H]1C, the activation is reported as -0.129% (inactive).
With CC(C)NC(=O)Nc1ccc2c(c1)CC(=O)N([C@@H](C)CO)C[C@H](C)[C@@H](CN(C)Cc1ccc(C(=O)O)cc1)O2 the activation was 0.001% (inactive).
With C[C@@H]1CN([C@@H](C)CO)C(=O)c2cccc(NC(=O)c3ccc(-c4nccs4)cc3)c2O[C@H]1CN(C)Cc1ccc(Oc2ccccc2)cc1 the activation was 3.4% (inactive).

Same assay, conditions: HUVEC E-selectin immunostaining, at 21 µM (top of the series), percent of TNF-alpha response over vehicle
With C[C@@H]1CN([C@H](C)CO)C(=O)c2cc(NC(=O)Nc3ccc4c(c3)OCO4)ccc2O[C@H]1CN(C)S(=O)(=O)c1ccccc1 the activation was -0.095% (inactive).
With COc1ccc(NC(=O)N(C)C[C@H]2Oc3ccc(NC(=O)Cc4cn(C)c5ccccc45)cc3C(=O)N([C@H](C)CO)C[C@@H]2C)cc1 the activation was 7.04% (inactive).
In the case of Cc1noc(C)c1NC(=O)Nc1cccc2c1O[C@@H](CN(C)CC1CCCCC1)[C@H](C)CN([C@@H](C)CO)C2=O, the activation is reported as -0.074% (inactive).
In the case of C[C@@H]1CN([C@@H](C)CO)C(=O)Cc2cc(NC(=O)Cc3ccccc3)ccc2O[C@@H]1CN(C)Cc1ccncc1, the activation is reported as -0.043% (inactive).
For C[C@H]1CN([C@@H](C)CO)C(=O)Cc2cc(NC(=O)CCCCCC(=O)Nc3ccccc3N)ccc2O[C@H]1CN(C)Cc1ccc(Cl)c(Cl)c1, the activation was 5.06% (inactive).
In the case of C[C@@H]1CN([C@H](C)CO)C(=O)Cc2cc(NC(=O)Nc3ccc(F)cc3)ccc2O[C@@H]1CN(C)S(=O)(=O)c1cn(C)cn1, the activation is reported as -0.103% (inactive).
For Cc1noc(C)c1S(=O)(=O)Nc1ccc2c(c1)C(=O)N([C@H](C)CO)C[C@@H](C)[C@H](CN(C)Cc1ccncc1)O2, the activation was -0.191% (inactive).
With C[C@@H]1CN([C@H](C)CO)C(=O)Cc2cc(NC(=O)Nc3ccc(F)cc3)ccc2O[C@@H]1CN(C)S(=O)(=O)c1ccc(Cl)cc1 the activation was 0.732% (inactive).
